Test results: US4321265A, “7α-Methoxycephalosporins” (Toyama Chemical Co., Ltd., priority 1977, dated 1982)
In brackets after ≈: the same amount, converted by molar mass.

Tests used:
Assay in all cases: Minimum inhibitory concentration (MIC), Heart Infusion agar
Assay type in all cases: cell-based
[1] = tested on: Ser. marcescens W-35; details: Serratia marcescens, W35, 20 h, Ser. marcescens W-35; 10^6 cells/ml; 20 hours, 37° C. (Table 1); read-out: minimum inhibitory concentration (MIC)
Procedure: (§1) Antibacterial activities of the representative compounds (Ib) of the 7α-methoxycephalosporins according to this invention are shown in Table 1. [drawing 20]
The figures given in Table 1 represent the minimum inhibitory concentration (MIC in mcg/ml) of each compound, which was determined according to the method described in "Chemotherapy (Society of Chemotherapy, Japan), Vol. 16, 98-99 (1968)": A culture obtained by cultivating the test bacterium in a Heart Infusion broth (Eiken Kagaku Co.) was inoculated into a Heart Infusion agar medium (Eiken Kagaku Co.). After 20 hours of the incubation at 37° C., the growth of the bacterium was inspected to determine the minimum inhibitory concentration (MIC in mcg/ml). […]
(§2) (1) Minimum inhibitory concentration (MIC in mcg/ml).

[2] = tested on: Citrobacter N-7; details: N7; Citrobacter N-7; 10^6 cells/ml; 20 hours, 37° C.; read-out: minimum inhibitory concentration (MIC)
Procedure: as §1
(§3) The figures given in Table 1 represent the minimum inhibitory concentration (MIC in mcg/ml) of each compound, which was determined according to the method described in "Chemotherapy (Society of Chemotherapy, Japan), Vol. 16, 98-99 (1968)": A culture obtained by cultivating the test bacterium in a Heart Infusion broth (Eiken Kagaku Co.) was inoculated into a Heart Infusion agar medium (Eiken Kagaku Co.). After 20 hours of the incubation at 37° C., the growth of the bacterium was inspected to determine the minimum inhibitory concentration (MIC in mcg/ml). The inoculation rate of the bacterium was 10^4 cells/plate (10^6 cells/ml).
as §2

[3] = tested on: S. aureus F-19 (Penicillinase-producing bacterium); details: Staphylococcus aureus; S. aureus F-19; 10^6 cells/ml; 20 hours, 37° C.; read-out: minimum inhibitory concentration (MIC)
Procedure: as §1, §3, §2

[4] = tested on: Acinetobacter caloaceticus A-6; details: A6; Acinetobacter caloaceticus A-6; 10^6 cells/ml; 20 hours, 37° C.; read-out: minimum inhibitory concentration (MIC)
Procedure: as §1, §3, §2

[5] = tested on: Ser. marcescens IID620; details: Serratia marcescens; Ser. marcescens IID620; 10^6 cells/ml; 20 hours, 37° C.; read-out: minimum inhibitory concentration (MIC)
Procedure: as §1, §3, §2

[6] = tested on: Ps. aeruginosa IFO-3445; details: Pseudomonas aeruginosa, IFO3445; Ps. aeruginosa IFO-3445; 10^6 cells/ml; 20 hours, 37° C.; read-out: minimum inhibitory concentration (MIC)
Procedure: as §1, §3, §2

[7] = tested on: K. pneumoniae Y-50; details: Klebsiella pneumoniae, Y50; K. pneumoniae Y-50; 10^6 cells/ml; 20 hours, 37° C.; read-out: minimum inhibitory concentration (MIC)
Procedure: as §1, §3, §2

[8] = tested on: C. freundii GN-346 (Cephalosporinase-producing bacterium); details: Citrobacter freundii, GN346; C. freundii GN-346; 10^6 cells/ml; 20 hours, 37° C.; read-out: minimum inhibitory concentration (MIC)
Procedure: as §1, §3, §2

[9] = tested on: Ps. aeruginosa S-68; details: Pseudomonas aeruginosa, S68; Ps. aeruginosa S-68; 10^6 cells/ml; 20 hours, 37° C.; read-out: minimum inhibitory concentration (MIC)
Procedure: as §1, §3, §2

[10] = tested on: Klebsiella spp. Y-72; details: SPP.Y72; Klebsiella spp. Y-72; 10^6 cells/ml; 20 hours, 37° C.; read-out: minimum inhibitory concentration (MIC)
Procedure: as §1, §3, §2

[11] = tested on: Ser. marcescens W-8; details: Serratia marcescens, W8; Ser. marcescens W-8; 10^6 cells/ml; 20 hours, 37° C.; read-out: minimum inhibitory concentration (MIC)
Procedure: as §1, §3, §2

[12] = tested on: E. coli NIHJ; details: Escherichia coli; E. coli NIHJ; 10^6 cells/ml; 20 hours, 37° C.; read-out: minimum inhibitory concentration (MIC)
Procedure: as §1, §3, §2

[13] = tested on: Prot. vulgaris GN-76; details: Proteus vulgaris, GN76; Prot. vulgaris GN-76; 10^6 cells/ml; 20 hours, 37° C.; read-out: minimum inhibitory concentration (MIC)
Procedure: as §1, §3, §2

[14] = tested on: Ent. cloacae IID977; details: Enterobacter cloacae; Ent. cloacae IID977; 10^6 cells/ml; 20 hours, 37° C.; read-out: minimum inhibitory concentration (MIC)
Procedure: as §1, §3, §2

Row | Structure (SMILES) | MIC [1] | MIC [2] | MIC [3] | MIC [4] | MIC [5] | MIC [6] | MIC [7] | MIC [8] | MIC [9] | MIC [10] | MIC [11] | MIC [12] | MIC [13] | MIC [14]
1 | CCN1CCN(C(=O)NC(C(=O)N[C@]2(OC)C(=O)N3C(C(=O)O)=C(CSc4nnnn4CC(=O)O)CS[C@@H]32)c2cccs2)C(=O)C1=O (stereo partly drawn) | 100 µg/mL (≈ 141 µM) | 1.56 µg/mL (≈ 2.2 µM) | 6.25 µg/mL (≈ 8.81 µM) | 25 µg/mL (≈ 35.2 µM) | 0.78 µg/mL (≈ 1.1 µM) | 25 µg/mL (≈ 35.2 µM) | 6.25 µg/mL (≈ 8.81 µM) | 50 µg/mL (≈ 70.4 µM) | 50 µg/mL (≈ 70.4 µM) | 25 µg/mL (≈ 35.2 µM) | 50 µg/mL (≈ 70.4 µM) | ≤ 0.1 µg/mL | 0.78 µg/mL (≈ 1.1 µM) | 25 µg/mL (≈ 35.2 µM)
2 | CCN1CCN(C(=O)N[C@@H](C(=O)N[C@]2(OC)C(=O)N3C(C(=O)O)=C(COC(C)=O)CS[C@@H]32)c2cccs2)C(=O)C1=O [OCOCH3, 7β-[D(-)-α-(4-ethyl-2,3-dioxo-1-piperazinecarboxamido)-α-(2-thienyl)-acetamido]-7α-methoxy-3-acetoxymethyl-Δ^3-cephem-4-carboxylic acid] | 50 µg/mL (≈ 82 µM) | 3.13 µg/mL (≈ 5.13 µM) | 6.25 µg/mL (≈ 10.3 µM) | 25 µg/mL (≈ 41 µM) | 3.13 µg/mL (≈ 5.13 µM) | 50 µg/mL (≈ 82 µM) | 1.56 µg/mL (≈ 2.56 µM) | 100 µg/mL (≈ 164 µM) | 50 µg/mL (≈ 82 µM) | 6.25 µg/mL (≈ 10.3 µM) | 100 µg/mL (≈ 164 µM) | ≤ 0.1 µg/mL | 1.56 µg/mL (≈ 2.56 µM) | 50 µg/mL (≈ 82 µM)
3 | CCN1CCN(C(=O)NC(C(=O)N[C@]2(OC)C(=O)N3C(C(=O)O)=C(CSc4nnnn4CCN(C)C)CS[C@@H]32)c2cccs2)C(=O)C1=O (stereo partly drawn) | 50 µg/mL (≈ 69.2 µM) | 6.25 µg/mL (≈ 8.65 µM) | 6.25 µg/mL (≈ 8.65 µM) | 12.5 µg/mL (≈ 17.3 µM) | 0.39 µg/mL (≈ 0.54 µM) | 50 µg/mL (≈ 69.2 µM) | 0.78 µg/mL (≈ 1.08 µM) | 25 µg/mL (≈ 34.6 µM) | 25 µg/mL (≈ 34.6 µM) | 12.5 µg/mL (≈ 17.3 µM) | 50 µg/mL (≈ 69.2 µM) | ≤ 0.1 µg/mL | 1.56 µg/mL (≈ 2.16 µM) | 25 µg/mL (≈ 34.6 µM)
4 | CCN1CCN(C(=O)NC(C(=O)N[C@]2(OC)C(=O)N3C(C(=O)O)=C(CSc4nncs4)CS[C@@H]32)c2cccs2)C(=O)C1=O (stereo partly drawn) | 12.5 µg/mL (≈ 18.7 µM) | 12.5 µg/mL (≈ 18.7 µM) | 6.25 µg/mL (≈ 9.36 µM) | 12.5 µg/mL (≈ 18.7 µM) | 0.78 µg/mL (≈ 1.17 µM) | 25 µg/mL (≈ 37.4 µM) | 0.39 µg/mL (≈ 0.584 µM) | 100 µg/mL (≈ 150 µM) | 25 µg/mL (≈ 37.4 µM) | 1.56 µg/mL (≈ 2.34 µM) | 25 µg/mL (≈ 37.4 µM) | ≤ 0.1 µg/mL | 0.78 µg/mL (≈ 1.17 µM) | 100 µg/mL (≈ 150 µM)
5 | CCN1CCN(C(=O)NC(C(=O)N[C@]2(OC)C(=O)N3C(C(=O)O)=C(CSc4nnnn4CCO)CS[C@@H]32)c2cccs2)C(=O)C1=O (stereo partly drawn) | 12.5 µg/mL (≈ 18 µM) | 1.56 µg/mL (≈ 2.24 µM) | 3.13 µg/mL (≈ 4.5 µM) | 6.25 µg/mL (≈ 8.98 µM) | 0.2 µg/mL (≈ 0.287 µM) | 12.5 µg/mL (≈ 18 µM) | 0.39 µg/mL (≈ 0.561 µM) | 12.5 µg/mL (≈ 18 µM) | 12.5 µg/mL (≈ 18 µM) | 1.56 µg/mL (≈ 2.24 µM) | 50 µg/mL (≈ 71.9 µM) | ≤ 0.1 µg/mL | 0.39 µg/mL (≈ 0.561 µM) | 25 µg/mL (≈ 35.9 µM)
6 | CCN1CCN(C(=O)NC(C(=O)N[C@]2(OC)C(=O)N3C(C(=O)O)=C(CSc4nnnn4CC(=O)NO)CS[C@@H]32)c2cccs2)C(=O)C1=O (stereo partly drawn) | 200 µg/mL (≈ 276 µM) | 50 µg/mL (≈ 69 µM) | 25 µg/mL (≈ 34.5 µM) | 1.56 µg/mL (≈ 2.15 µM) | 0.78 µg/mL (≈ 1.08 µM) | 12.5 µg/mL (≈ 17.2 µM) | 1.56 µg/mL (≈ 2.15 µM) | ≥ 200 µg/mL | 25 µg/mL (≈ 34.5 µM) | 100 µg/mL (≈ 138 µM) | 100 µg/mL (≈ 138 µM) | ≤ 0.1 µg/mL | 0.78 µg/mL (≈ 1.08 µM) | 200 µg/mL (≈ 276 µM)
7 | CCN1CCN(C(=O)NC(C(=O)N[C@]2(OC)C(=O)N3C(C(=O)O)=C(CSc4nnnn4C)CS[C@@H]32)C2=CCC=CC2)C(=O)C1=O (stereo partly drawn) | 50 µg/mL (≈ 75.6 µM) | 6.25 µg/mL (≈ 9.45 µM) | 3.13 µg/mL (≈ 4.73 µM) | 6.25 µg/mL (≈ 9.45 µM) | 0.78 µg/mL (≈ 1.18 µM) | 12.5 µg/mL (≈ 18.9 µM) | 0.78 µg/mL (≈ 1.18 µM) | 25 µg/mL (≈ 37.8 µM) | 25 µg/mL (≈ 37.8 µM) | 12.5 µg/mL (≈ 18.9 µM) | 100 µg/mL (≈ 151 µM) | ≤ 0.1 µg/mL | 3.13 µg/mL (≈ 4.73 µM) | 25 µg/mL (≈ 37.8 µM)
8 | CCN1CCN(C(=O)NC(C(=O)N[C@]2(OC)C(=O)N3C(C(=O)O)=C(CSc4nnnn4C)CS[C@@H]32)c2cccs2)C(=O)C1=O (stereo partly drawn) [drawing 22] | 6.25 µg/mL (≈ 9.39 µM) | 0.78 µg/mL (≈ 1.17 µM) | 3.13 µg/mL (≈ 4.7 µM) | 12.5 µg/mL (≈ 18.8 µM) | 0.78 µg/mL (≈ 1.17 µM) | 12.5 µg/mL (≈ 18.8 µM) | 0.39 µg/mL (≈ 0.586 µM) | 25 µg/mL (≈ 37.6 µM) | 12.5 µg/mL (≈ 18.8 µM) | 6.25 µg/mL (≈ 9.39 µM) | 25 µg/mL (≈ 37.6 µM) | ≤ 0.1 µg/mL | 0.2 µg/mL (≈ 0.3 µM) | 25 µg/mL (≈ 37.6 µM)
9 | C=Cn1nnnc1SCC1=C(C(=O)O)N2C(=O)[C@](NC(=O)C(NC(=O)N3CCN(CC)C(=O)C3=O)c3cccs3)(OC)[C@H]2SC1 (stereo partly drawn) | 12.5 µg/mL (≈ 18.4 µM) | 3.13 µg/mL (≈ 4.62 µM) | 3.13 µg/mL (≈ 4.62 µM) | 12.5 µg/mL (≈ 18.4 µM) | 0.2 µg/mL (≈ 0.295 µM) | 25 µg/mL (≈ 36.9 µM) | 0.39 µg/mL (≈ 0.575 µM) | 12.5 µg/mL (≈ 18.4 µM) | 12.5 µg/mL (≈ 18.4 µM) | 6.25 µg/mL (≈ 9.22 µM) | 25 µg/mL (≈ 36.9 µM) | ≤ 0.1 µg/mL | 0.78 µg/mL (≈ 1.15 µM) | 25 µg/mL (≈ 36.9 µM)
